These results are taken from PubChem BioAssay (NCI).

Structures are written as SMILES.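 Each compound was tested at five concentrations against cells in 96-well plates for 48 hours. At the TGI there is no net growth.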

Among the test systems are EKVX NSCLC; T-47D breast; A549 NSCLC; HS 578T breast; NCI-H23 lung; KM12 colon; TK-10 renal; HCC-2998 colon; SW-620 colon; M14 melanoma.
Holding throughout (test): growth of human tumour cells (NCI), 48 h

Regarding `CC1OC(OC2C(O[C@H]3CC[C@@]4(C)C(=CC[C@H]5[C@@H]6C[C@@H]7O[C@]8(CC[C@@H](C)CO8)[C@@H](C)[C@@H]7[C@@]6(C)CC[C@@H]54)C3)OC(CO)C(O)C2OC2OC(CO)C(O)C(O)C2O)C(O)C(O)C1O` (some centres not stated), the TGI with EKVX NSCLC is more than 21.9 µM; in the assay with T-47D breast it was 4.65 µM; in the assay on A549 NSCLC it was 3.35 µM; with HS 578T breast, 3.74 µM; in the assay with NCI-H23 lung, 3.44 µM; in the assay with KM12 colon, 4.49 µM. The TGI in the assay with TK-10 renal turned out to be 4.01 µM; with HCC-2998 colon it was 3.34 µM; in the assay on SW-620 colon it was 4.39 µM.
With `COc1cc2c[n+]3c4c(c2c(OC)c1OC)CCCC4CC3` (configuration not stated), the TGI with EKVX NSCLC was more than 100 µM; in the assay with T-47D breast, more than 100 µM; with A549 NSCLC, more than 100 µM; with HS 578T breast it was 62.3 µM; in the assay on NCI-H23 lung, more than 100 µM; with KM12 colon, more than 100 µM. Besides, the TGI in the assay with HCC-2998 colon, in the assay with SW-620 colon and in the assay with M14 melanoma was more than 100 µM in each case.
As for `NC(=O)CCC(N=c1c2ccccc2n(O)c2ccccc12)C(=O)O` (configuration not stated), the TGI in the assay with EKVX NSCLC, with A549 NSCLC, in the assay with NCI-H23 lung, in the assay with KM12 colon, in the assay with TK-10 renal and with HCC-2998 colon was more than 100 µM throughout. The TGI with SW-620 colon and with M14 melanoma was more than 100 µM throughout.
For `CC(=O)n1[nH]c(=O)n(-c2ccc(Cl)cc2)c1=O`, the TGI in the assay with EKVX NSCLC, with T-47D breast, in the assay on A549 NSCLC, in the assay on NCI-H23 lung, with KM12 colon and in the assay on TK-10 renal was more than 100 µM each time. The TGI in the assay with HCC-2998 colon, in the assay on SW-620 colon and in the assay with M14 melanoma was more than 100 µM in each case.
Take `ClC1=NN=C(c2c[nH]c3ccccc23)CC1NCc1ccccc1` (configuration not stated): the TGI in the assay with EKVX NSCLC, with T-47D breast, in the assay with A549 NSCLC, in the assay with HS 578T breast, with NCI-H23 lung and in the assay with KM12 colon was more than 100 µM in each case. In addition, the TGI in the assay with TK-10 renal, in the assay with SW-620 colon and with M14 melanoma was more than 100 µM throughout.
On to `COC1(CC[C@@H](C)COC2OC(CO)C(O)C(O)C2O)OC2C[C@H]3[C@@H]4CC[C@H]5C[C@@H](OC6OC(CO)C(OC7OC(CO)C(O)C(O)C7O)C(O)C6OC6OC(C)C(O)C(O)C6O)[C@H](O)C[C@]5(C)[C@H]4CC[C@]3(C)C2[C@@H]1C` (some centres not stated), for which the TGI in the assay on EKVX NSCLC worked out at 4.52 µM; in the assay on T-47D breast, 9.01 µM; with A549 NSCLC, 3.83 µM; in the assay on HS 578T breast, 7.25 µM; in the assay with KM12 colon, 5.02 µM; in the assay with TK-10 renal it was 3.82 µM. Further, the TGI in the assay on HCC-2998 colon stood at 3.24 µM; in the assay on SW-620 colon, 4.66 µM; in the assay on M14 melanoma, 3.36 µM.
For `O=C(O)CSC(CC(=O)c1ccc(Cl)cc1)c1ccc(Cl)cc1` (configuration not stated), the TGI in the assay with EKVX NSCLC was more than 100 µM; in the assay with T-47D breast it was 98.4 µM; with A549 NSCLC, more than 100 µM; in the assay on HS 578T breast, more than 100 µM; in the assay on NCI-H23 lung, more than 100 µM; in the assay with KM12 colon it was 27.6 µM. Further, the TGI in the assay on TK-10 renal, in the assay on SW-620 colon and with M14 melanoma was more than 100 µM each time.
Consider `CC1=C(CO)C(=O)OC(C(C)C2CCC3C4CC5OC56C(O)C(N5CC5)=CC(=O)C6(C)C4CCC23C)C1` (configuration not stated), for which the TGI was found to be 25.6 µM with EKVX NSCLC; 29.6 µM in the assay with A549 NSCLC; 7 µM in the assay on NCI-H23 lung; 5.01 µM with KM12 colon; 22 µM in the assay with TK-10 renal; 9.73 µM with HCC-2998 colon. Further, the TGI in the assay with SW-620 colon was found to be 6.4 µM; in the assay on M14 melanoma it was 24.6 µM.
On to `CCC1(O)CC(CCN(Cc2ccccc2)C(=O)OCc2ccccc2)C(OCc2ccccc2)C1O` (configuration not stated), for which the TGI is 30.9 µM in the assay on EKVX NSCLC; 30.6 µM in the assay on T-47D breast; 27.1 µM with A549 NSCLC; 30.4 µM with NCI-H23 lung; 27.3 µM in the assay with KM12 colon; 36.8 µM with TK-10 renal. Also, the TGI in the assay on HCC-2998 colon was 28.9 µM; in the assay with SW-620 colon, more than 100 µM; in the assay on M14 melanoma, 42.3 µM.
Consider `CC(C)(C)C(=O)Nc1c(C=O)ccc2[nH]cnc12`, for which the TGI in the assay with EKVX NSCLC, with T-47D breast, in the assay with A549 NSCLC, in the assay on NCI-H23 lung, with KM12 colon and with TK-10 renal was more than 100 µM each time. Besides, the TGI in the assay with HCC-2998 colon, with SW-620 colon and in the assay on M14 melanoma was more than 100 µM in each case.
On to `CCOc1ccc2nc(NC(=O)C(=O)C(C(=O)c3ccccc3F)C3OC(=O)c4ccccc43)sc2c1` (configuration not stated), for which the TGI in the assay with EKVX NSCLC was determined as 45.3 µM; in the assay with A549 NSCLC, 76.4 µM; in the assay on KM12 colon, 19 µM; with TK-10 renal, 90.7 µM; in the assay with HCC-2998 colon, 29.7 µM; with SW-620 colon, 37.5 µM. Besides, the TGI with M14 melanoma was determined as 32.5 µM.
For `N[C@@H](CCC(=O)NC(Cc1ccccc1)C(=O)NCP(=O)(O)O)C(=O)O` (some centres not stated), the TGI in the assay on EKVX NSCLC, in the assay on T-47D breast, in the assay with A549 NSCLC, in the assay with HS 578T breast, in the assay on NCI-H23 lung and in the assay with KM12 colon was more than 100 µM each time. Moreover, the TGI in the assay on TK-10 renal, in the assay with HCC-2998 colon and in the assay with SW-620 colon was more than 100 µM each time.
In the case of `CC(=O)CC1(CBr)Nc2ccc([N+](=O)[O-])cc2NC1=O` (configuration not stated), the TGI with EKVX NSCLC, with T-47D breast, in the assay on A549 NSCLC, with NCI-H23 lung, in the assay on KM12 colon and in the assay on TK-10 renal was more than 100 µM each time. In addition, the TGI with HCC-2998 colon, with SW-620 colon and in the assay with M14 melanoma was more than 100 µM in each case.
`O=C(O)c1c(CC(Cc2ccc3c(c2)CCC3)C(=O)O)ccc2c1CCC2` (configuration not stated): the TGI in the assay with EKVX NSCLC, in the assay on A549 NSCLC, with HS 578T breast, in the assay with NCI-H23 lung, in the assay on KM12 colon and in the assay on TK-10 renal was more than 100 µM each time. The TGI with HCC-2998 colon, in the assay with SW-620 colon and in the assay with M14 melanoma was more than 100 µM in each case.
